US20230151003A1, “COMPOUNDS AND METHODS OF USE” (Exelixis, Inc., priority 2020, published 2023)
pIC50: −log10 of the molar value.

Legend:
KDR = KDR (Homo sapiens, UniProt P35968); experiment: KDR autophosphorylation ELISA in HUVEC cells; type: cell-based; set-up: endogenous in cells; host or cells: HUVEC (Lonza #C2519A); conditions: Table 3 Cellular Activities, VEGF165-stimulated, phospho-KDR ELISA
In short: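 Read-out: phospho-KDR ELISA on cell lysates, quantified against a phospho-KDR standard, normalised to VEGF-stimulated DMSO (100%) and unstimulated (0%) wells, IC50 by 4-parameter fit. Cells were 24 h serum-starved HUVEC given compound for 1 h, then 100 ng/mL VEGF165 for 5 min.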

Mer = molecular target: T1, Mer (Homo sapiens, UniProt Q12866); experiment: Mer autophosphorylation ELISA in transient transfected 293A cells; type: cell-based; conditions: Table 3 Cellular Activities; MERTK-transfected 293A cells, phospho-Mer ELISA
T1 construct: host or cells: 293A cells (Thermo Fisher #R70507)
T1 sequence (Q12866 21-999): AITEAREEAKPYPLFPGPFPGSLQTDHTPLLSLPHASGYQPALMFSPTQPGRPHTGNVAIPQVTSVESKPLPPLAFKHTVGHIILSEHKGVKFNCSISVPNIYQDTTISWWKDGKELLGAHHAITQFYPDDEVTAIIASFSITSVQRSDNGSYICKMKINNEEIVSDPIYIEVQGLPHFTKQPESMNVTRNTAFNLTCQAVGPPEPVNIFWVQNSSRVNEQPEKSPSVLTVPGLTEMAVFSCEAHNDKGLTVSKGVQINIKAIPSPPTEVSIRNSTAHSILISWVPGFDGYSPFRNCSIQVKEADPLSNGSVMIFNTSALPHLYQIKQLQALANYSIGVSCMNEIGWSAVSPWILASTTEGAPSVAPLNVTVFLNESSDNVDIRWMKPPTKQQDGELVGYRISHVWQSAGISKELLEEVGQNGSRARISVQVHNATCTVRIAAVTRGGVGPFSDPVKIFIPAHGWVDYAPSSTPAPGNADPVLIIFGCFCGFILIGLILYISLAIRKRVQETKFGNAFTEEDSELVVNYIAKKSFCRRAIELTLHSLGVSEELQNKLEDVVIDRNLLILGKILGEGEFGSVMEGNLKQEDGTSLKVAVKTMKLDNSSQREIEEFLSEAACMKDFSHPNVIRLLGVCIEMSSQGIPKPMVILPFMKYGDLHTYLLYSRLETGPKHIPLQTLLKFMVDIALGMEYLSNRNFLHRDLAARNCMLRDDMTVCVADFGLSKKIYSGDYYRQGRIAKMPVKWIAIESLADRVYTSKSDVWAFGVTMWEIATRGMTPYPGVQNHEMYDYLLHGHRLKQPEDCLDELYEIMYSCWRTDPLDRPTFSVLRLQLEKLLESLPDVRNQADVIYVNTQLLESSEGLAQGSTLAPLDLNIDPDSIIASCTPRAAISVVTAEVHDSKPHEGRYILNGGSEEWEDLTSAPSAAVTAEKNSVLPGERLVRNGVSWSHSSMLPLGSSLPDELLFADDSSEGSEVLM
In short: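 Phospho-Mer quantified by ELISA in lysates of transiently MERTK-transfected 293A cells after 1 h exposure to an 8-point compound series, serum-free, 0.3% DMSO. Activity normalized between DMSO-treated (100%) and reference inhibitor-treated (0%) lysates; IC50 via 4-parameter nonlinear regression.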

Chain of KDR (P35968 20-1356): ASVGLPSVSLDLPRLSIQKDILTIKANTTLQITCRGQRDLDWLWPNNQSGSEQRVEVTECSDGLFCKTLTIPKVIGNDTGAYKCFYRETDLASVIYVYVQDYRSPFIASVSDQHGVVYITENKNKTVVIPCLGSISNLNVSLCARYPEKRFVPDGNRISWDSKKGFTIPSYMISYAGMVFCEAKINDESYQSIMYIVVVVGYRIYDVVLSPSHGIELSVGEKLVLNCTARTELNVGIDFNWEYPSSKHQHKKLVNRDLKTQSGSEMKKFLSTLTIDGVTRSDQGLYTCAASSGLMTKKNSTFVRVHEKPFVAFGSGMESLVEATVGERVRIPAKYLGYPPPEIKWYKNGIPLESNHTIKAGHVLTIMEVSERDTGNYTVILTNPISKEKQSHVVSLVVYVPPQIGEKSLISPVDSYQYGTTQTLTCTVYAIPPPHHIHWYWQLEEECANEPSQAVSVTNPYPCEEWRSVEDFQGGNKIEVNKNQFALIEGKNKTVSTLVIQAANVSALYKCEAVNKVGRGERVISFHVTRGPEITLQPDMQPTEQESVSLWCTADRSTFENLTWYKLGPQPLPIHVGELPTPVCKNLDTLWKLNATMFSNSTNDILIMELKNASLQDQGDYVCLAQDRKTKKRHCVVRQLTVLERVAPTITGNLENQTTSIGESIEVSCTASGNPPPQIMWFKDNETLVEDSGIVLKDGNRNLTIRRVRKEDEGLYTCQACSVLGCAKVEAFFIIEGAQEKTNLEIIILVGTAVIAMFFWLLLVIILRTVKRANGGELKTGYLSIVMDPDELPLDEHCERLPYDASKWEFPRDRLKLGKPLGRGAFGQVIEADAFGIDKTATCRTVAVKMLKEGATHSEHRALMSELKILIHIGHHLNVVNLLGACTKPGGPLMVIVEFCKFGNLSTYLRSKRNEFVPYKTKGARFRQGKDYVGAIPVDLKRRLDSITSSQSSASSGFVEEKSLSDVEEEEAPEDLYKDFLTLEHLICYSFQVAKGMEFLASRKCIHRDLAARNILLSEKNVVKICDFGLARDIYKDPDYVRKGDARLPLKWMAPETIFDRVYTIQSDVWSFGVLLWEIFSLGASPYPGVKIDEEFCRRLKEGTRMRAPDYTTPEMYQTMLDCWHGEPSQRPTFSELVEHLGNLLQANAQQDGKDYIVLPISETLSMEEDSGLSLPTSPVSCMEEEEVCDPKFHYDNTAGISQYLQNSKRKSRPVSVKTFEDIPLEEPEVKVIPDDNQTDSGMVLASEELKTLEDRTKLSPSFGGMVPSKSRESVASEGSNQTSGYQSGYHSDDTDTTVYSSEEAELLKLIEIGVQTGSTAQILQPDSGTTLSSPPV

| pIC50 (KDR) | pIC50 (Mer) | Structure (SMILES) |
| --- | --- | --- |
| ≥ 7.00 | ≥ 7.00 | COc1cnc2c(Oc3ccc(NC(=O)c4cnc(C)c(-c5ccsc5)c4O)cc3F)ccnc2c1 [Compound 98, N-[3-Fluoro-4-[(7-methoxy-1,5-naphthyridin-4-yl)oxy]phenyl]-4-hydroxy-6-methyl-5-(3-thienyl)pyridine-3-carboxamide] |
| ≥ 7.00 | ≥ 7.00 | COc1cc2nccc(Oc3ccc(NC(=O)c4cnc(C)c(-c5ccc(C)s5)c4O)cc3F)c2nc1OC [Compound 94, N-[4-[(6,7-Dimethoxy-1,5-naphthyridin-4-yl)oxy]-3-fluoro-phenyl]-4-hydroxy-6-methyl-5-(5-methyl-2-thienyl) pyridine-3-carboxamide] |
